In patent publication US20140357577A1, “HIV Membrane Fusion Inhibitors” (priority 2011, published 2014):
Starred links: 1 amine or outer side, 2 acyl side, 3 side chain; linkers in the order of their positions; H or OH if unused. Non-standard residues stand in square brackets, D forms with d. Suc = O=C(CCC(=O)[*:2])[*:1]; hCys = N[C@@H](CCS)C(=O)O; Nva = CCC[C@H](N)C(=O)O; Tba = not defined here

What was measured:
[1] = target: gp41 of HIV-1 wild type strain IIIB (HIV-1 strain IIIB)
[2] = target: gp41 of HIV-1 strain HXB2D with mutation Q40H (HIV-1 strain HXB2D) (UniProt P04578)
[3] = tested on: HIV mutant virus strain HXB2D with mutation Q40H in the gp41 gene; assay: Standard AVE, HXB2D site directed mutant Q40H; assay type: cell-based, HIV-1; settings: fold change vs wild type strain HXB2D
Procedure, shortened: (§1)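 MT4-LTR-EGFP cells infected with HIV-1 IIIB, HXB2D or HXB2D gp41 mutants V38A/Q40H alongside serial 4-fold compound dilutions, 3 days at 37° C. EGFP read by laser-scanning microscopy; EC50 by linear interpolation against log concentration. Mutant results given as fold change in EC50 versus wild-type HXB2D.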

[4] = tested on: HIV mutant virus strain HXB2D with mutation V38A in the gp41 gene; assay: Standard AVE, HXB2D site directed mutant V38A; assay type: cell-based, HIV-1; settings: fold change vs wild type strain HXB2D
Description: • Standard Anti-Viral-Experiment “AVE” (wild type HIV strain IIIB+HIV strain HXB2D side directed mutants V38A and Q40H)
The HIV-1 replication assay measures virus replication (HIV wild type virus strain 111B or HXB2D, or a HIV mutant virus strain HXB2D with mutation V38A or Q40H in the gp41 gene) as an induction of enhanced green fluorescent protein (EGFP) expression. The indicator MT4-LTR-EGFP cells contain an EGFP gene under the control of the HIV-1 LTR promoter sequence. Successful HIV-1 infection results in viral Tat protein expression and subsequent induction of EGFP expression. Compounds/peptides inhibiting HIV-1 infection are expected to reduce EGFP expression as compared to the untreated HIV-infected control.
Serial 4-fold dilutions of test compounds/peptides were mixed with HIV-1 (IIIB, HXB2D, or a HXB2D mutant virus (V38A or Q40H)) and MT4-LTR-EGFP cells and incubated at 37° C. After 3 days, the wells were examined for EGFP expression using an argon laser-scanning microscope. The effective compound/peptide concentration inhibiting 50% of the virus-induced EGFP signal (EC50) was determined by linear interpolation of the EGFP signal vs. logarithm of the compound concentration; (T20, C34 and Sifuvirtide were added as reference compounds). For the V38A and Q40H mutant viruses, results were reported as a fold change in EC50, as compared with a drug-susceptible wild type strain HXB2D, which forms the backbone of the mutant virus. • Standard AVE (50% Human Serum)

HIV-IIIB + 50% HS = assay: Standard AVE (50% Human Serum), HIV-1 replication assay in MT4-LTR-EGFP cells; assay type: cell-based; settings: fold change vs EC50 in the assay without human serum
Procedure, shortened: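 MT4-LTR-EGFP cells infected with HIV-1 alongside 4-fold serial compound dilutions in 50% human serum, 3 days at 37 °C. EGFP read by laser-scanning microscopy; EC50 by linear interpolation against log concentration, reported as fold change versus EC50 without serum.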

[5] = tested on: HIV wild type virus strain IIIB; assay: Standard Anti-Viral-Experiment (AVE), HIV-1 replication assay in MT4-LTR-EGFP cells, wild type IIIB; assay type: cell-based; settings: 3 days, EGFP signal
Procedure, shortened: as §1

Row | Molecule | EC50 of HIV-IIIB replication (EGFP) [1] [nM] | fold change in EC50, HIV-IIIB + 50% HS [1] [fold] | fold change in EC50, HIV-HXB2D Q40H mutant [2] [fold] | HIV-HXB2D Q40H mutant (fold change in EC50) [3] | HIV-HXB2D V38A mutant (fold change in EC50) [4] | HIV-IIIB + 50% HS (Fold change in EC50) (HIV-IIIB + 50% HS) | EC50 [5] [nM]
1 | C34 (peptide) | 266 | 0.8 | 8.8 | – | – | – | –
2 | Suc-CYLACIEELIRKAQEQQEKNEAAL-Tba-NH2 [23] (Suc-CYLACIEELIRKAQEQQEKNEAAL-{Tba-NH2}; cysteine pairing not given here; reading uncertain; also: printed as Suc-CYLACIEELIRKAQEQQEKNEAAL-Tba-NH2) [Peptide 23] | – | – | – | 807 | 45 | 0.6 | 1
3 | T20 (peptide) | 17 | 3.9 | 49.7 | – | – | – | –
4 | Sifuvirtide (peptide) | 2 | 1 | 2 | – | – | – | –
5 | Sifuvirtide-PBD (peptide) | 36400 | 0.8 | > 3 | – | – | – | –
6 | Ac-A[hCys]YAA[hCys]IEALIRKAQEQQEKNEAALR-NH2 (cysteine pairing not given here) [Peptide 79] | – | – | – | 284 | 27 | 2 | 5
7 | Ac-ACY-Cha-ACIEALIRAAQEQQEKNEAALR-NH2 [Peptide 59] | – | – | – | 44 | 18 | 3 | 3
8 | Ac-A[hCys]YAA[hCys]IEALIRKAQEQQEKNEAALR-NH2 (cysteine pairing not given here) [Peptide 80] | – | – | – | 375 | 40 | 2 | 2
9 | Suc-ACY-Nva-ACIEALIRAAQEQQEKNEAALR-NH2 [Peptide 44] | – | – | – | 160 | 15 | 1 | 2
10 | Suc-ACYLACIEALIRA[Nva]QEQQEKNEAALR-NH2 (cysteine pairing not given here) [Peptide 46] | – | – | – | 42 | 6 | 2 | 1
11 | Ac-NNYTSLIHSLIEESQNQQEKNEQELL-NH2 [C34-PBD*] | > 49200 | – | – | – | – | – | –
